Columns and labels:
Cyperus iria = test: Preemergence weed control under flooded paddy conditions, CYPIR (Rice Flatsedge); type: in vivo; conditions: flooded paddy; on herbicidal effect rating, CYPIR: meaning of each grade not given here
[1] = system: Monochoria vaginalis, Presl.; test: Preemergence weed control under flooded paddy conditions, MOOVA (Monochoria); type: in vivo; conditions: flooded paddy; on herbicidal effect rating, MOOVA: meaning of each grade not given here
[2] = system: Echinochloa oryzoides (Ard.) Fritsch.; test: Preemergence weed control under flooded paddy conditions, ECHORC (Watergrass (Calif.)); type: in vivo; conditions: flooded paddy; on herbicidal effect rating, ECHORC: meaning of each grade not given here
[3] = system: Cyperus serotinus, Rottb.; test: Preemergence weed control under flooded paddy conditions, CYPSE (Flatsedge); type: in vivo; on herbicidal effect rating, CYPSE: meaning of each grade not given here
[4] = system: Oryza sativa, (L.) Tebonnet; test: Rice tolerance to post-transplant applications under flooded paddy conditions (Example 187), ORYSAT (Rice, Tebonnet); on herbicidal effect rating ORYSAT: meaning of each grade not given here
Sagittaria pygmaea, L. = test: Preemergence weed control under flooded paddy conditions, SAGPY (Arrowhead (Pygmaea)); type: in vivo; conditions: flooded paddy; on herbicidal effect rating, SAGPY: meaning of each grade not given here
[5] = Rate 0.0320 kg/ha, preemergence weeds, rated three to four weeks after treatment
[6] = Rate 0.0620 kg/ha, preemergence weeds, rated three to four weeks after treatment
[7] = Rate 0.1250 kg/ha, preemergence weeds, rated three to four weeks after treatment
[8] = Rate 0.2500 kg/ha, preemergence weeds, rated three to four weeks after treatment
[9] = Rate 0.0320 kg/ha, rated three to four weeks after treatment
[10] = Rate 0.0620 kg/ha, rated three to four weeks after treatment
[11] = Rate 0.1250 kg/ha, rated three to four weeks after treatment
[12] = Rate 0.2500 kg/ha, rated three to four weeks after treatment
[13] = Rate 0.0320 kg/ha, preemergence, rated three to four weeks after treatment
[14] = Rate 0.0620 kg/ha, preemergence, rated three to four weeks after treatment
[15] = Rate 0.1250 kg/ha, preemergence, rated three to four weeks after treatment
[16] = Rate 0.2500 kg/ha, preemergence, rated three to four weeks after treatment
[17] = 0.0320 kg/ha, preemergence, rated three to four weeks after treatment
[18] = 0.0620 kg/ha, preemergence, rated three to four weeks after treatment
[19] = 0.1250 kg/ha, preemergence, rated three to four weeks after treatment
[20] = 0.2500 kg/ha, preemergence, rated three to four weeks after treatment
[21] = 0.1250 kg/ha, rated three to four weeks after treatment
[22] = 0.2500 kg/ha, rated three to four weeks after treatment
[23] = 0.0313 kg/ha, preemergence, rated three to four weeks after treatment
[24] = 0.0625 kg/ha, preemergence, rated three to four weeks after treatment
[25] = Rate 0.0620 kg/ha, preemergence, rated 3-4 weeks after treatment
[26] = Rate 0.1250 kg/ha, preemergence, rated 3-4 weeks after treatment
[27] = Rate 0.2500 kg/ha, preemergence, rated 3-4 weeks after treatment
[28] = Rate 0.5000 kg/ha, preemergence, rated 3-4 weeks after treatment

Cn1c(C(F)(F)F)cc(=O)n(-c2ccc3snc(C(=O)NS(C)(=O)=O)c3c2)c1=O [Example 323, 1,2-Benzisothiazole-3-carboxamide, 5-[3,6-dihydro-3-methyl-2,6-dioxo-4-(trifluoromethyl)-1(2H)-pyrimidinyl]-N-(methylsulfonyl)-]
herbicidal effect rating, CYPIR (Cyperus iria; [5]): 3.5
herbicidal effect rating, CYPIR (Cyperus iria; [6]): 4.5
herbicidal effect rating, CYPIR (Cyperus iria; [7]): 8.0
herbicidal effect rating, CYPIR (Cyperus iria; [8]): 8.0
herbicidal effect rating, MOOVA [1, 5]: 8.0
herbicidal effect rating, MOOVA [1, 6]: 9.0
herbicidal effect rating, MOOVA [1, 7]: 9.0
herbicidal effect rating, MOOVA [1, 8]: 9.0
herbicidal effect rating, ECHORC [2, 5]: 4.5
herbicidal effect rating, ECHORC [2, 6]: 6.5
herbicidal effect rating, ECHORC [2, 7]: 8.0
herbicidal effect rating, ECHORC [2, 8]: 8.0
herbicidal effect rating, CYPSE [3, 5]: 5.0
herbicidal effect rating, CYPSE [3, 6]: 6.0
herbicidal effect rating, CYPSE [3, 7]: 6.5
herbicidal effect rating, CYPSE [3, 8]: 7.5
herbicidal effect rating ORYSAT [4, 9]: 3.5
herbicidal effect rating ORYSAT [4, 10]: 5.0
herbicidal effect rating ORYSAT [4, 11]: 6.0
herbicidal effect rating ORYSAT [4, 12]: 7.5
herbicidal effect rating, SAGPY (Sagittaria pygmaea, L.; [5]): 0.0
herbicidal effect rating, SAGPY (Sagittaria pygmaea, L.; [6]): 3.5
herbicidal effect rating, SAGPY (Sagittaria pygmaea, L.; [7]): 3.5
herbicidal effect rating, SAGPY (Sagittaria pygmaea, L.; [8]): 9.0

CN(C(=O)c1nsc2ccc(-n3c(=O)cc(C(F)(F)F)n(C)c3=O)cc12)S(C)(=O)=O [Example 367, 1,2-Benzisothiazole-3-carboxamide, 5-[3,6-dihydro-3-methyl-2,6-dioxo-4-(trifluoromethyl)-1(2H)-pyrimidinyl]-N-methyl-N-(methylsulfonyl)-]
herbicidal effect rating, CYPIR (Cyperus iria; [13]): 0.0
herbicidal effect rating, CYPIR (Cyperus iria; [14]): 5.0
herbicidal effect rating, CYPIR (Cyperus iria; [15]): 7.0
herbicidal effect rating, CYPIR (Cyperus iria; [16]): 9.0
herbicidal effect rating, MOOVA [1, 13]: 9.0
herbicidal effect rating, MOOVA [1, 14]: 9.0
herbicidal effect rating, MOOVA [1, 15]: 9.0
herbicidal effect rating, MOOVA [1, 16]: 9.0
herbicidal effect rating, ECHORC [2, 13]: 0.0
herbicidal effect rating, ECHORC [2, 14]: 0.0
herbicidal effect rating, ECHORC [2, 15]: 3.0
herbicidal effect rating, ECHORC [2, 16]: 6.0
herbicidal effect rating, CYPSE [3, 13]: 0.0
herbicidal effect rating, CYPSE [3, 14]: 9.0
herbicidal effect rating, CYPSE [3, 15]: 9.0
herbicidal effect rating, CYPSE [3, 16]: 9.0
herbicidal effect rating ORYSAT [4, 9]: 0.0
herbicidal effect rating ORYSAT [4, 10]: 0.0
herbicidal effect rating ORYSAT [4, 11]: 5.0
herbicidal effect rating ORYSAT [4, 12]: 6.0
herbicidal effect rating, SAGPY (Sagittaria pygmaea, L.; [13]): 0.0
herbicidal effect rating, SAGPY (Sagittaria pygmaea, L.; [14]): 2.0
herbicidal effect rating, SAGPY (Sagittaria pygmaea, L.; [15]): 5.0
herbicidal effect rating, SAGPY (Sagittaria pygmaea, L.; [16]): 9.0

Cn1c(C(F)(F)F)cc(=O)n(-c2ccc3snc(-c4ccccc4OCC(=O)O)c3c2)c1=O [Example 312, Acetic acid, {o-{5-[3,6-dihydro-3-methyl-2,6-dioxo-4-(trifluoromethyl)-1(2H)-pyrimidinyl]-1,2-benzisothiazol-3-yl}phenoxy}-]
herbicidal effect rating, CYPIR (Cyperus iria; [5]): 4.5
herbicidal effect rating, CYPIR (Cyperus iria; [6]): 6.5
herbicidal effect rating, CYPIR (Cyperus iria; [7]): 9.0
herbicidal effect rating, CYPIR (Cyperus iria; [8]): 9.0
herbicidal effect rating, MOOVA [1, 5]: 4.5
herbicidal effect rating, MOOVA [1, 6]: 6.0
herbicidal effect rating, MOOVA [1, 7]: 9.0
herbicidal effect rating, MOOVA [1, 8]: 9.0
herbicidal effect rating, ECHORC [2, 5]: 6.0
herbicidal effect rating, ECHORC [2, 6]: 6.5
herbicidal effect rating, ECHORC [2, 7]: 9.0
herbicidal effect rating, ECHORC [2, 8]: 9.0
herbicidal effect rating, CYPSE [3, 5]: 0.0
herbicidal effect rating, CYPSE [3, 6]: 3.5
herbicidal effect rating, CYPSE [3, 7]: 4.5
herbicidal effect rating, CYPSE [3, 8]: 6.0
herbicidal effect rating ORYSAT [4, 9]: 5.0
herbicidal effect rating ORYSAT [4, 10]: 6.5
herbicidal effect rating ORYSAT [4, 11]: 7.0
herbicidal effect rating ORYSAT [4, 12]: 7.5
herbicidal effect rating, SAGPY (Sagittaria pygmaea, L.; [5]): 0.0
herbicidal effect rating, SAGPY (Sagittaria pygmaea, L.; [6]): 2.0
herbicidal effect rating, SAGPY (Sagittaria pygmaea, L.; [7]): 5.5
herbicidal effect rating, SAGPY (Sagittaria pygmaea, L.; [8]): 6.5

COc1cc(Cl)c(C)cc1-c1nsc2ccc(-n3c(=O)cc(C(F)(F)F)n(C)c3=O)cc12 [Example 506, 2,4(1H,3H)-Pyrimidinedione, 3-[3-(4-chloro-6-methoxy-m-tolyl)-1,2-benzisothiazol-5-yl]-1-methyl-6-(trifluoromethyl)-]
CYPIR herbicidal rating (Cyperus iria; [17]): 6.5
CYPIR herbicidal rating (Cyperus iria; [18]): 8.0
CYPIR herbicidal rating (Cyperus iria; [19]): 9.0
CYPIR herbicidal rating (Cyperus iria; [20]): 9.0
MOOVA herbicidal rating [1, 17]: 8.0
MOOVA herbicidal rating [1, 18]: 9.0
MOOVA herbicidal rating [1, 19]: 9.0
MOOVA herbicidal rating [1, 20]: 9.0
ECHORC herbicidal rating [2, 17]: 7.5
ECHORC herbicidal rating [2, 18]: 9.0
ECHORC herbicidal rating [2, 19]: 9.0
ECHORC herbicidal rating [2, 20]: 9.0
CYPSE herbicidal rating [3, 17]: 4.5
CYPSE herbicidal rating [3, 18]: 4.5
CYPSE herbicidal rating [3, 19]: 4.5
CYPSE herbicidal rating [3, 20]: 7.0
ORYSAT herbicidal rating (rice tolerance) ([4]; 0.0320 kg/ha, rated three to four weeks after treatment): 1.5
ORYSAT herbicidal rating (rice tolerance) ([4]; 0.0620 kg/ha, rated three to four weeks after treatment): 1.5
ORYSAT herbicidal rating (rice tolerance) [4, 21]: 1.5
ORYSAT herbicidal rating (rice tolerance) [4, 22]: 2.0
SAGPY herbicidal rating (Sagittaria pygmaea, L.; [17]): 2.5
SAGPY herbicidal rating (Sagittaria pygmaea, L.; [18]): 3.0
SAGPY herbicidal rating (Sagittaria pygmaea, L.; [19]): 3.0
SAGPY herbicidal rating (Sagittaria pygmaea, L.; [20]): 4.5

COc1ccccc1Oc1noc2ccc(-n3c(=O)cc(C(F)(F)F)n(C)c3=O)cc12 [Example 43, 3-[3-(o-Methoxyphenoxy)-1,2-benzisoxazol-5-yl]-1-methyl-6-(trifluoromethyl)-2,4(1H,3H)-pyrimidinedione]
herbicidal effect rating, CYPIR (Cyperus iria; [23]): 0.0
herbicidal effect rating, CYPIR (Cyperus iria; [24]): 0.0
herbicidal effect rating, CYPIR (Cyperus iria; [19]): 0.0
herbicidal effect rating, CYPIR (Cyperus iria; [20]): 0.0
herbicidal effect rating, MOOVA [1, 23]: 6.0
herbicidal effect rating, MOOVA [1, 24]: 9.0
herbicidal effect rating, MOOVA [1, 19]: 9.0
herbicidal effect rating, MOOVA [1, 20]: 9.0
herbicidal effect rating, ECHORC [2, 23]: 0.0
herbicidal effect rating, ECHORC [2, 24]: 0.0
herbicidal effect rating, ECHORC [2, 19]: 2.0
herbicidal effect rating, ECHORC [2, 20]: 8.0
herbicidal effect rating, CYPSE [3, 23]: 0.0
herbicidal effect rating, CYPSE [3, 24]: 0.0
herbicidal effect rating, CYPSE [3, 19]: 0.0
herbicidal effect rating, CYPSE [3, 20]: 0.0
herbicidal effect rating, ORYSAT (rice tolerance) ([4]; 0.0313 kg/ha, rated three to four weeks after treatment): 1.0
herbicidal effect rating, ORYSAT (rice tolerance) ([4]; 0.0625 kg/ha, rated three to four weeks after treatment): 2.0
herbicidal effect rating, ORYSAT (rice tolerance) [4, 21]: 3.0
herbicidal effect rating, ORYSAT (rice tolerance) [4, 22]: 3.0
herbicidal effect rating, SAGPY (Sagittaria pygmaea, L.; [23]): 0.0
herbicidal effect rating, SAGPY (Sagittaria pygmaea, L.; [24]): 0.0
herbicidal effect rating, SAGPY (Sagittaria pygmaea, L.; [19]): 0.0
herbicidal effect rating, SAGPY (Sagittaria pygmaea, L.; [20]): 0.0

CC(Oc1ccccc1-c1nsc2ccc(-n3c(=O)cc(C(F)(F)F)n(C)c3=O)cc12)C(=O)N(C)C (stereo not drawn) [Example 551, Propionamide, 2-{o-{5-[3,6-dihydro-3-methyl-2,6-dioxo-4-(trifluoromethyl)-1(2H)-pyrimidinyl]-1,2-benzisothiazol-3-yl}phenoxy}-N,N-dimethyl-]
herbicidal effect rating, CYPIR (Cyperus iria; [25]): 0.0
herbicidal effect rating, CYPIR (Cyperus iria; [26]): 0.0
herbicidal effect rating, CYPIR (Cyperus iria; [27]): 2.0
herbicidal effect rating, CYPIR (Cyperus iria; [28]): 9.0
herbicidal effect rating, MOOVA [1, 25]: 0.0
herbicidal effect rating, MOOVA [1, 26]: 9.0
herbicidal effect rating, MOOVA [1, 27]: 9.0
herbicidal effect rating, MOOVA [1, 28]: 9.0
herbicidal effect rating, ECHORC [2, 25]: 4.0
herbicidal effect rating, ECHORC [2, 26]: 7.0
herbicidal effect rating, ECHORC [2, 27]: 7.0
herbicidal effect rating, ECHORC [2, 28]: 9.0
herbicidal effect rating, CYPSE [3, 25]: 0.0
herbicidal effect rating, CYPSE [3, 26]: 0.0
herbicidal effect rating, CYPSE [3, 27]: 0.0
herbicidal effect rating, CYPSE [3, 28]: 0.0
herbicidal effect rating ORYSAT ([4]; Rate 0.0620 kg/ha, rated 3-4 weeks after treatment): 0.0
herbicidal effect rating ORYSAT ([4]; Rate 0.1250 kg/ha, rated 3-4 weeks after treatment): 3.0
herbicidal effect rating ORYSAT ([4]; Rate 0.2500 kg/ha, rated 3-4 weeks after treatment): 3.0
herbicidal effect rating ORYSAT ([4]; Rate 0.5000 kg/ha, rated 3-4 weeks after treatment): 4.0
herbicidal effect rating, SAGPY (Sagittaria pygmaea, L.; [25]): 0.0
herbicidal effect rating, SAGPY (Sagittaria pygmaea, L.; [26]): 0.0
herbicidal effect rating, SAGPY (Sagittaria pygmaea, L.; [27]): 0.0
herbicidal effect rating, SAGPY (Sagittaria pygmaea, L.; [28]): 2.0

Reference: patent EP0908457B1, “3-(1,2-benzisothiazol- and isoxazol-5-Y1)-2,4(1H,3H)-pyrimidinedione or thione and 3-(1,2-benzisothiazol- and isoxazol-5-y1)-4(3H)-pyrimidinone or thione herbicidal agents” (BASF AKTIENGESELLSCHAFT, priority 1997, dated 1999)
